{"source": "patent US20070010463A1", "about": "“Remedies for diseases caused by strengthened vascular smooth muscle using 14-membered ring macrolid compounds” (priority 2003, published 2007)", "key": {"[1]": {"system": "human coronary vascular smooth muscle cells (CASMCs)", "assay": "Inhibition experiment of the proliferation of CASMCs (WST-1 formazan assay, absorbance 450 nm)", "type": "cell-based", "method": "The CASMCs were purchased from Clonetics Co., and cultured at 37° C., 5% CO2 using an attached culture kit (SmGM-2) in a culture medium comprising 5% fetal bovine serum (FBS), 2 ng/ml human basic fibroblast growth factor (b-FGF), 5 μg/ml bovine insulin, and 0.5 ng/ml human epidermal growth factor.\nThe CASMCs were cultured in a 96-well plate as in the Example 1 so that about 70˜80% of the area of each well was occupied by the cells, then put into a nutrition-depletion state for 24 hours under a non-serum condition. Roxythromycin (RXM) was then added as a test compound to the culture medium to give various concentration (0.1, 1.0, 10, 100 μg/ml) and the cells were cultured further for 24˜72 hours. The degree of growth of the cells was assayed at each elapsed time by formazan-formation coloring test with WST-1 agent using Takara Premix WST-1 Cell Proliferation Assay System Kit. Actually, Premix WST-1 was added 10 μl each followed by detection of absorbance at 450 nm by means of a plate reader.\nThe same experiments were conducted using other anti-bacterial and anti-fungal agents."}, "[2]": {"system": "human coronary vascular smooth muscle cells (CASMCs)", "assay": "Cell cycle analysis of CASMCs by flow cytometry (propidium iodide)", "type": "cell-based", "conditions": "RXM 10 μg/ml, FIG. 3", "method": "A further experiment was done using a flow cytometry in order to study when the RXM's direct inhibition activity of the proliferation of CASMCs was effected in a cell cycle.\nThe flow cytometry method was carried out in accordance with the following procedures and conditions.\nThe cells were fixed with 70% ethanol for 30 min and incubated with RNase (5 μg/ml) for 30 min. They were then incubated with propidium iodide (10 μg/ml) for 30 min, followed by detection with FACScan (Becton Dickinson Co.).\nThe transition ratio of the cell cycle was obtained by DNA histogram analysis with ModFit LT software, and shown as % for the total cells."}, "[3]": {"system": "CDKIs-p21", "assay": "Western blot analysis of CDKIs-p21 expression in mitogen-stimulated CASMCs", "type": "cell-based, human", "conditions": "RXM 1-10 μg/ml, under stimulation with the mitogens, FIG. 5", "method": "(§1) Western blot was carried out as follows. After the completion of SDS gel electrophoresis, the resulting bands were transferred to PVDF membrane, blocked with dry milk, incubated successively with a first antibody (anit-phosphorylated Rb rabbit antibody) and a labeled second antibody (anti-rabbit IgG mouse antibody), developed using alkaline phosphatase immuno blot kit and determined by means of a densitometer. The operating conditions in these steps were standard ones known to those skilled in the art.\n(§2) In order to examine what kind of modification of intracellular molecules was responsible for the RXM's inhibition of the production of phosphorylated Rb in CASMCs, the analysis was carried out by means of Western blot in the same conditions as in Example 5, focusing attention on […] (CDKIs) that was known to control the intracellular molecules, especially on its major molecules, CDKIs-p27 and CDKIs-p21.\n(§3) As an expresssion level of both CDKIs-p27 and CDKIs-p21 was so low in a normal cell that it could not be detected by Western blot, the analysis was actually done on the cells activated after stimulation with the mitogens in the same way as in Example 5."}, "[4]": {"system": "CDKIs-p27", "assay": "Western blot analysis of CDKIs-p27 expression in mitogen-stimulated CASMCs", "type": "cell-based, human", "conditions": "RXM 1-10 μg/ml, under stimulation with the mitogens, FIG. 5", "method": "as §1, §2, §3"}, "[5]": {"system": "phosphorylated Rb (retinoblastoma gene products)", "assay": "Western blot analysis of phosphorylated Rb in mitogen-stimulated CASMCs", "type": "cell-based, human", "conditions": "RXM 1-10 μg/ml, FIG. 4", "method": "It was analyzed whether or not the RXM's inhibition of the stage from G1 phase to S phase of CASMCs was based on the inhibition of phophorylation of Rb (retinoblastoma gene products) that was supposed to be an essential intracellular molecule for transition in the cell cycle. The analysis was carried out using phosphorylated Rb as a marker by means of Western blot with a monoclonal antibody specifically recognizing phosphorylated Rb (Cell Signaling Technology Co.).\nAs a level of phosphorylated Rb was so low in normal conditions that it could not be detected by Western blot under normal conditions, the analysis was actually done after 5% FBS, 2 ng/ml human b-FGF, 5 μg/ml bovine insulin, and 0.5 ng/ml human epidermal growth factor had been added to the culture medium in order to stimulate CASMCs with mitogens up to an activated state and to increase an amount of the expressed phosphorylated Rb.\nWestern blot was carried out as follows. After the completion of SDS gel electrophoresis, the resulting bands were transferred to PVDF membrane, blocked with dry milk, incubated successively with a first antibody (anit-phosphorylated Rb rabbit antibody) and a labeled second antibody (anti-rabbit IgG mouse antibody), developed using alkaline phosphatase immuno blot kit and determined by means of a densitometer. […]"}, "[6]": {"conditions": "background statement; cited from earlier work"}, "[7]": {"system": "mouse", "conditions": "cited from earlier work"}, "[8]": {"conditions": "50 μg/ml, any time between 24 and 72 hours, FIG. 2"}}, "note": "Read-outs that look alike come from different tables or passages of the source."}
{"compound": "C[C@@H]1[C@H](O)[C@@H](C)/C=C/C=C/C=C/C=C/C=C/C=C/C=C/[C@H](O[C@@H]2O[C@H](C)[C@@H](O)[C@H](N)[C@@H]2O)C[C@@H]2O[C@](O)(C[C@@H](O)C[C@@H](O)[C@H](O)CC[C@@H](O)C[C@@H](O)CC(=O)O[C@H]1C)C[C@H](O)[C@H]2C(=O)O", "note": "[Amphotericin B]", "values": [{"measurement": "inhibition of the proliferation of CASMCs", "setting": "[1]; 50 ng/ml, any time between 24 and 72 hours, FIG. 2", "result": "none"}]}
{"compound": "CC1(C)S[C@@H]2[C@H](NC(=O)[C@H](N)c3ccccc3)C(=O)N2[C@H]1C(=O)O", "note": "[Ampicilin]", "values": [{"measurement": "inhibition of the proliferation of CASMCs", "setting": "[1]; [8]", "result": "none"}]}
{"compound": "CC[C@H]1OC(=O)[C@H](C)[C@@H](O[C@H]2C[C@@](C)(OC)[C@@H](O)[C@H](C)O2)[C@H](C)[C@@H](O[C@@H]2O[C@H](C)C[C@H](N(C)C)[C@H]2O)[C@](C)(O)C[C@@H](C)/C(=N\\OCOCCOC)[C@H](C)[C@@H](O)[C@]1(C)O", "note": "[RXM, roxithromycin]", "values": [{"measurement": "inhibition of the stage from G1 phase to S phase in a cell cycle", "setting": "[2]", "result": "inhibited a stage from G1 phase to S phase in a cell cycle to a statistically significant level"}, {"measurement": "inhibition of the stage from S phase to G2/M phase", "setting": "[2]", "result": "did not inhibit"}, {"measurement": "expression of CDKIs-p21", "setting": "[3]", "result": "no clear difference was observed"}, {"measurement": "expression of CDKIs-p27 in CASMCs", "setting": "[4]", "result": "clearly increased in a RXM concentration-dependency manner"}, {"measurement": "inhibition of the proliferation of CASMCs", "setting": "[1]; RXM 1 μg/ml, any time during the observation (24-72 hours), vs RXM non-added group, FIG. 1A", "result": "inhibited the proliferation of CASMCs to a statistically significant level"}, {"measurement": "inhibition of the proliferation of CASMCs", "setting": "[1]; RXM 10 μg/ml, any time during the observation (24-72 hours), vs RXM non-added group, FIG. 1A", "result": "inhibited the proliferation of CASMCs to a statistically significant level"}, {"measurement": "inhibition of the proliferation of CASMCs", "setting": "[1]; range of 1-100 μg/ml, drug-dependence manner, vs RXM non-added group, FIG. 1B", "result": "inhibited the proliferation of CASMCs to a statistically significant level in a drug-dependence manner"}, {"measurement": "production of phosphorylated Rb in CASMCs", "setting": "[5]", "result": "clearly inhibited"}]}
{"compound": "CO[C@H]1C[C@@H]2CC[C@@H](C)[C@@](O)(O2)C(=O)C(=O)N2CCCC[C@H]2C(=O)O[C@H]([C@H](C)C[C@@H]2CC[C@@H](O)[C@H](OC)C2)CC(=O)[C@H](C)/C=C(\\C)[C@@H](O)[C@@H](OC)C(=O)[C@H](C)C[C@H](C)/C=C/C=C/C=C/1C", "note": "[Rapamycin, rapamycin]", "values": [{"measurement": "cytotoxicity", "setting": "[6]", "result": "strong cytotoxicity"}]}
{"compound": "CC[C@H]1OC(=O)[C@H](C)[C@@H](O[C@H]2C[C@@](C)(OC)[C@@H](O)[C@H](C)O2)[C@H](C)[C@@H](O[C@@H]2O[C@H](C)C[C@H](N(C)C)[C@H]2O)[C@](C)(O)C[C@@H](C)C(=O)[C@H](C)[C@@H](O)[C@]1(C)O.Cl", "note": "[erythromaycin hydrochloride, erythromaycin]", "values": [{"measurement": "Acute toxicity (mouse LD50)", "setting": "[7]; interperitoreal", "result": "490 ± 30.4", "unit": "mg/kg"}, {"measurement": "Acute toxicity (mouse LD50)", "setting": "[7]; vein", "result": "425.6 ± 15.7", "unit": "mg/kg"}]}
{"compound": "Gentamicin", "values": [{"measurement": "inhibition of the proliferation of CASMCs", "setting": "[1]; [8]", "result": "none"}]}
